{"source": "patent US20230143553A1", "about": "“PRECISION DELIVERY OF MULTI-SCALE PAYLOADS TO TISSUE-SPECIFIC TARGETS IN PLANTS” (MASSACHUSETTS INSTITUTE OF TECHNOLOGY, priority 2020, published 2023)", "key": {"[1]": {"test_system": "petiole's xylem", "assay": "Luciferin-luciferase bioluminescent reaction after phytoinjector delivery into petiole xylem", "type": "in vivo, tomato (Solanum lycopersicum)", "conditions": "luciferin in petiole's xylem; other reagents by foliar infiltration", "source_text": "The phytoinjectors were applied in petiole vasculature near the leaflet to facilitate observation and imaging. At first, luciferin was deployed in the petiole's xylem while the other reagents were delivered by foliar infiltration to the leaf."}, "[2]": {"test_system": "xylem", "assay": "Phytoinjector delivery to xylem of tomato, dye transport", "source_text": "Based on these parameters, phytoinjectors were designed with a tip diameter smaller than 35 μm and 10 μm for xylem and phloem, respectively (FIG. 1B, FIG. 13C and FIG. 13D). […] To investigate payload delivery in planta, each payload was loaded to phytoinjectors at the point of material assembly before drying. […] The injected petioles were sliced along the transverse section downstream and upstream at various distances from the injection site to investigate the presence of the delivered dyes. […] In xylem, transport analysis was conducted by tangential sectioning of the stem (FIG. 3E). […] To quantify payloads transport, the fluorescence intensity was integrated (see FIG. 3E). The normalized intensity distribution evolves spatially and temporally (FIG. 3F)."}}}
{"compound": "O=C(O)[C@H]1CSC(c2nc3ccc(O)cc3s2)=N1", "note": "[luciferin]", "values": [{"measurement": "luminescence of leaf tissue after delivery", "setting": "[1]", "value": "showed luminescence"}]}
{"compound": "5(6)-carboxyfluorescein diacetate", "values": [{"measurement": "transport distance upstream of injection site", "setting": "[2]", "value": 1, "unit": "cm"}, {"measurement": "transport distance downstream of injection site", "setting": "[2]; from root to leaves", "value": "more than 7 cm"}]}
